Calls of active or inactive are those of the source.
Legend:
U-937 [1] = assay: Inhibition of 2-[1,2-3H(N)]deoxy-D-glucose uptake in human U937 cells at 73 uM by scintillation spectrometry in presence of buffer containing NaCl and Na2HPO4; assay type: functional
HL-60 [2] = assay: Inhibition of 2-[1,2-3H(N)]deoxy-D-glucose uptake in human HL60 cells at 75 uM by scintillation spectrometry in presence of buffer containing NaCl and Na2HPO4; assay type: functional
U-937 [3] = assay: Inhibition of 2-[1,2-3H(N)]deoxy-D-glucose uptake in human U937 cells by Michaelis-Menten plot; assay type: functional, cell-based
HL-60 [4] = assay: Inhibition of 2-[1,2-3H(N)]deoxy-D-glucose uptake in human HL60 cells by Michaelis-Menten plot; assay type: functional, cell-based
U-937 [5] = assay: Inhibition of 2-[1,2-3H(N)]deoxy-D-glucose uptake in human U937 cells by scintillation spectrometry in presence of sodium-free buffer; assay type: functional, cell-based
HL-60 [6] = assay: Inhibition of 2-[1,2-3H(N)]deoxy-D-glucose uptake in human HL60 cells by scintillation spectrometry in presence of sodium-free buffer; assay type: functional, cell-based
U-937 [7] = assay: Inhibition of 2-[1,2-3H(N)]deoxy-D-glucose uptake in human U937 cells at >500 uM by scintillation spectrometry in presence of buffer containing NaCl and Na2HPO4; assay type: functional
HL-60 [8] = assay: Inhibition of 2-[1,2-3H(N)]deoxy-D-glucose uptake in human HL60 cells at >500 uM by scintillation spectrometry in presence of buffer containing NaCl and Na2HPO4; assay type: functional
U-937 [9] = assay: Inhibition of 2-[1,2-3H(N)]deoxy-D-glucose uptake in human U937 cells at >100 uM by scintillation spectrometry in presence of sodium-free buffer; assay type: functional
HL-60 [10] = assay: Inhibition of 2-[1,2-3H(N)]deoxy-D-glucose uptake in human HL60 cells at >100 uM by scintillation spectrometry in presence of sodium-free buffer; assay type: functional
U-937 [11] = assay: Inhibition of [14C]dehydroascorbic acid uptake in human U937 cells by scintillation spectrometry in presence of buffer containing NaCl and Na2HPO4; assay type: functional, cell-based
HL-60 [12] = assay: Inhibition of [14C]dehydroascorbic acid uptake in human HL60 cells by scintillation spectrometry in presence of buffer containing NaCl and Na2HPO4; assay type: functional, cell-based
U-937 [13] = assay: Inhibition of [14C]dehydroascorbic acid uptake in human U937 cells at 38 uM by scintillation spectrometry in presence of buffer containing NaCl and Na2HPO4; assay type: functional
HL-60 [14] = assay: Inhibition of [14C]dehydroascorbic acid uptake in human HL60 cells at 32 uM by scintillation spectrometry in presence of buffer containing NaCl and Na2HPO4; assay type: functional
U-937 [15] = assay: Inhibition of [14C]dehydroascorbic acid uptake in human U937 cells by Michaelis-Menten plot; assay type: functional, cell-based
U-937 [16] = assay: Inhibition of [14C]dehydroascorbic acid uptake in human U937 cells by scintillation spectrometry in presence of sodium-free buffer; assay type: functional, cell-based
HL-60 [17] = assay: Inhibition of [14C]dehydroascorbic acid uptake in human HL60 cells by scintillation spectrometry in presence of sodium-free buffer; assay type: functional, cell-based
[18] = target: T1, Solute carrier family 2, facilitated glucose transporter member 1 (Rattus norvegicus) (UniProt P11167); assay: Blockade of rat Glut1 expressed in CHO cells assessed as inhibition of 2-[1,2-3H(N)]deoxy-D-glucose uptake by scintillation spectrometry; assay type: cell-based
T1 sequence (whole entry): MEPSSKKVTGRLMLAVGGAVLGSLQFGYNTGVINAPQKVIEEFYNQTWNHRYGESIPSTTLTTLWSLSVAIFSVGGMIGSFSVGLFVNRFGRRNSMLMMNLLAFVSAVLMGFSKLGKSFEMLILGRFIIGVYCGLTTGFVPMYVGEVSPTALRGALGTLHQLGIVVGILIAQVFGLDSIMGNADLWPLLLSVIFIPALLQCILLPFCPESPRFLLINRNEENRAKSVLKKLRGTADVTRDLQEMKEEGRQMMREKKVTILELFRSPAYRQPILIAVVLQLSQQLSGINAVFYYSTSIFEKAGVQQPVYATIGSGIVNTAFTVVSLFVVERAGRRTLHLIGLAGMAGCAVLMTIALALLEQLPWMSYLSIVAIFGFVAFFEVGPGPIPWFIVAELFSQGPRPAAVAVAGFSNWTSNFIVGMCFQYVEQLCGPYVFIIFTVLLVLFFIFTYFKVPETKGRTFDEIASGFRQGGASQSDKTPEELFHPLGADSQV

[19] = target: T1, Solute carrier family 2, facilitated glucose transporter member 1 (Rattus norvegicus); assay: Blockade of rat Glut1 expressed in CHO cells assessed as inhibition of [14C]dehydroascorbic acid uptake by scintillation spectrometry; assay type: cell-based
[20] = target: T2, Solute carrier family 2, facilitated glucose transporter member 3 (Homo sapiens) (UniProt P11169); assay: Blockade of human Glut3 expressed in CHO cells assessed as inhibition of 2-[1,2-3H(N)]deoxy-D-glucose uptake by scintillation spectrometry; assay type: cell-based
T2 sequence (whole entry): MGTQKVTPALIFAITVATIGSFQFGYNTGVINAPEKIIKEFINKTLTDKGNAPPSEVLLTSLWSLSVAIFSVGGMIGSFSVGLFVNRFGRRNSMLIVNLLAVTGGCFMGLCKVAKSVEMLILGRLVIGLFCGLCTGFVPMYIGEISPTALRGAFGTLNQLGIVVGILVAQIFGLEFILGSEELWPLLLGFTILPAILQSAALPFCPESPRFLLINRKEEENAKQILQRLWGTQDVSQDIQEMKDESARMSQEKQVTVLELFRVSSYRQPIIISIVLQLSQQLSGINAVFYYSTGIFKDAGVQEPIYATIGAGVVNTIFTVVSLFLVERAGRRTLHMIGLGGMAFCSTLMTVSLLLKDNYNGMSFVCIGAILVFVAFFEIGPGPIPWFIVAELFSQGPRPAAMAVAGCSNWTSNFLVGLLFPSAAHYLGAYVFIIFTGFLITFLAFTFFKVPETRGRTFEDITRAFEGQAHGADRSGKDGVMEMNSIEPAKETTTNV

[21] = target: T2, Solute carrier family 2, facilitated glucose transporter member 3 (Homo sapiens); assay: Blockade of human Glut3 expressed in CHO cells assessed as inhibition of [14C]dehydroascorbic acid uptake by scintillation spectrometry; assay type: cell-based

Oc1ccc(/C=C/c2cc(O)cc(O)c2)cc1 [RESVERATROL]
35 µM: Ki (U-937 [15])
50%: inhibition at 73 µM (U-937 [1]) | inhibition at 75 µM (HL-60 [2]) | inhibition at 38 µM (U-937 [13]) | inhibition at 32 µM (HL-60 [14])
89 µM: Ki (U-937 [3])
10%: inhibition (INH) (U-937 [9]) | inhibition (INH) (HL-60 [10])
active: Activity (U-937 [5]) | Activity (HL-60 [6]) | Activity (U-937 [11]) Dose-dependent effect | Activity (HL-60 [12]) Dose-dependent effect | Activity (U-937 [16]) | Activity (HL-60 [17]) | Activity [18] | Activity [19] | Activity [20] | Activity [21]
20%: inhibition (INH) (U-937 [7]) | inhibition (INH) (HL-60 [8])
85 µM: Ki (HL-60 [4])

From ChEMBL document CHEMBL1150577, “Inhibition of glucose and dehydroascorbic acid uptakes by resveratrol in human transformed myelocytic cells” (J Nat Prod, 2001)
